Data reported in patent US20240299387A1, “HETEROCYCLIC EGFR INHIBITORS FOR USE IN THE TREATMENT OF CANCER” (Blueprint Medicines Corporation, priority 2021, published 2024).

Experiments:
EGFR (L858R T790M C797S) = target: T1, EGFR (L858R T790M C797S) (Homo sapiens, UniProt P00533, C797S/L858R/T790M); assay: Biochemical EGFR inhibition assay (Caliper mobility shift), EGFR LRTMCS mutant; settings: LRTMCS (PH) IC50 (nM) @ 1 mM ATP (Num)
T1 construct: purchased SignalChem E10-122VG
Method in brief: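 Apparent IC50s were derived by plotting percent activity against the log of compound concentration. Activity was measured as phosphopeptide electrophoretically separated from substrate, after reactions at room temperature reached 10% to 20% phosphorylation and were halted with 35 mM EDTA.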

[1] = target: T2, EGFR L858R T790M in NCI-H1975 cell line (Homo sapiens, UniProt P00533, L858R/T790M); assay: NCI-H1975 pEGFR AlphaLISA assay; assay type: cell-based; settings: NCI-H1975 cells (EGFR L858R T790M), p-EGFR (Tyr1068), 4-5 hours incubation; read-out: Ext pEGFR H1975 GMean IC50 (nM) Protocol: @Pharmaron AlphaLISA (Num)
T2 construct: host or cells: NCI-H1975
Method in brief: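 Phospho-EGFR measured by AlphaLISA after overnight donor-bead incubation; IC50 from percent pEGFR inhibition versus log concentration.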

T2 sequence (P00533 25-1210 T790M/L858R): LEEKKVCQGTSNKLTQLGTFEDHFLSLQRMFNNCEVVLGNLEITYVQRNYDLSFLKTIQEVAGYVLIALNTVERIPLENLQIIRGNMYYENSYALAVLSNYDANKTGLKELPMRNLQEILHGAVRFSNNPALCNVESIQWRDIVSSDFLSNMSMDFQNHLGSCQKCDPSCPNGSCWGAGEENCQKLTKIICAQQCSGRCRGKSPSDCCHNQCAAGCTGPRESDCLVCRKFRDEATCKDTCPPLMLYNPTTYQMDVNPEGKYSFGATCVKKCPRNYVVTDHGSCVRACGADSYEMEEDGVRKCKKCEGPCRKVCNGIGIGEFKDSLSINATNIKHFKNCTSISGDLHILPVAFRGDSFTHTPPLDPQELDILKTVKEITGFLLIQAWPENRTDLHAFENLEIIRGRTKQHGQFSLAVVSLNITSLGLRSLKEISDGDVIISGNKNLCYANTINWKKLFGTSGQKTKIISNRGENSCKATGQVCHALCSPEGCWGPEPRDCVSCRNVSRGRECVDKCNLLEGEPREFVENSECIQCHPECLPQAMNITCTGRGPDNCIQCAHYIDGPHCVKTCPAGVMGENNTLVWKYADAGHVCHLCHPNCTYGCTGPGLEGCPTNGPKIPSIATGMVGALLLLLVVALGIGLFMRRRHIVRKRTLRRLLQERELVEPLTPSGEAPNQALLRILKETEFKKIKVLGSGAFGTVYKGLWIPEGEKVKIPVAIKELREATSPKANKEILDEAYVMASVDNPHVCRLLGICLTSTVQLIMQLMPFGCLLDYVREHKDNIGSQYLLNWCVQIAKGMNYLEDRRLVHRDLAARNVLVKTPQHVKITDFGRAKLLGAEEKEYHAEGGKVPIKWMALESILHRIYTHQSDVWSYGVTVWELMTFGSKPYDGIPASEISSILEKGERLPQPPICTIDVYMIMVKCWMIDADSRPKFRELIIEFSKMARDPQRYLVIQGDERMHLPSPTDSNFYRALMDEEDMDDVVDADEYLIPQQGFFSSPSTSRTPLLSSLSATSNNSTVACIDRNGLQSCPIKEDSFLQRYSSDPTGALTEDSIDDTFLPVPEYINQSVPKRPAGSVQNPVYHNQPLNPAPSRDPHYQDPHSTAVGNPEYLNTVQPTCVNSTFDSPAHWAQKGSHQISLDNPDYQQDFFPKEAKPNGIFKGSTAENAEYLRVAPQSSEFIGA
T1 sequence (P00533 25-1210 T790M/C797S/L858R): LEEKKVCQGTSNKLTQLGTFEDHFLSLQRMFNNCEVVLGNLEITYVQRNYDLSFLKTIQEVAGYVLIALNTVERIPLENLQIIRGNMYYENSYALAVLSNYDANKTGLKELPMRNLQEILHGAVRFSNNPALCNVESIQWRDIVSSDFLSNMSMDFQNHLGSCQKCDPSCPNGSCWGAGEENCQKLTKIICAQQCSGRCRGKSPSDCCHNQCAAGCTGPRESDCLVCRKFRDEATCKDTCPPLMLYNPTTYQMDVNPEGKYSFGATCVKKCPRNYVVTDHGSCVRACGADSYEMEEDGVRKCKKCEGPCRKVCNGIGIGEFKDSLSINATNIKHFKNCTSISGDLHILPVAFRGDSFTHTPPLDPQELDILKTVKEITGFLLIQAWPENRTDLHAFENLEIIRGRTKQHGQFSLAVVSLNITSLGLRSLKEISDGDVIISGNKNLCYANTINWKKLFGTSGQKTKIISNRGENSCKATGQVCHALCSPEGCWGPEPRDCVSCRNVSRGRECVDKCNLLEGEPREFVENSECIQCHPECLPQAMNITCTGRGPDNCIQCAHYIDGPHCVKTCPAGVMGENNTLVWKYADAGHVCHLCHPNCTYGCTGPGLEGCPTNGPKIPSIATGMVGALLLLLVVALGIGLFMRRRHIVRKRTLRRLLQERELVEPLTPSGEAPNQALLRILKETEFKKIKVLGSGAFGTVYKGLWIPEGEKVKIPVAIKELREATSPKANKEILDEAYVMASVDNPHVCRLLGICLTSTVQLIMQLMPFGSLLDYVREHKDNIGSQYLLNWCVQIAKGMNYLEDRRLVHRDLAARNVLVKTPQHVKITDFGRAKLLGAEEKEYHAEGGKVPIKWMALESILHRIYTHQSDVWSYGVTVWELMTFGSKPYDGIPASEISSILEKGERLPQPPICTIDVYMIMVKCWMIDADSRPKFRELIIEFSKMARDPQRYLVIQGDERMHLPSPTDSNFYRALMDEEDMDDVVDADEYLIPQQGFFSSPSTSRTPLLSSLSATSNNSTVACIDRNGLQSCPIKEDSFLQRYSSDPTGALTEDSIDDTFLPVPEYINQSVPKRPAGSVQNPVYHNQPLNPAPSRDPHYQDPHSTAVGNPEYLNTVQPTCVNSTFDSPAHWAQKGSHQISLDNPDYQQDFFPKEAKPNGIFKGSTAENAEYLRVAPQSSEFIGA

Structure (SMILES)	IC50 (EGFR (L858R T790M C797S)) [nM]	IC50 [1] [nM]
CC(C)c1ccc(OC[C@@H]2COC(=O)N2C)c2cnc(Nc3ccnc(N4CC[C@@H](OCCN(C)C)[C@@H](F)C4)n3)cc12 [Example 53, (R)-4-(((3-((2-((3S,4R)-4-(2-(dimethylamino)ethoxy)-3-fluoro-piperidin-1-yl)pyrimidin-4-yl)amino)-5-isopropylisoquinolin-8-yl)oxy)methyl)-3-methyloxazolidin-2-one]	15 to 20	> 50
CNCCO[C@@H]1CCN(c2nccc(Nc3cc4c(C(C)C)ccc(OC[C@@H]5COC(=O)N5C)c4cn3)n2)C[C@@H]1F [Example 54, (R)-4-(((3-((2-((3S,4R)-3-fluoro-4-(2-(methylamino)ethoxy)piperidin-1-yl)pyrimidin-4-yl)amino)-5-isopropylisoquinolin-8-yl)oxy)methyl)-3-methyloxazolidin-2-one]	15 to 20	> 50
CO[C@@H]1CCN(c2nccc(Nc3cc4c(C(C)C)ncc(OCCn5cnnc5)c4cn3)n2)C[C@@H]1F [Example 55, 8-(2-(4H-1,2,4-triazol-4-yl)ethoxy)-N-(2-((3S,4R)-3-fluoro-4-methoxypiperidin-1-yl)pyrimidin-4-yl)-5-isopropyl-2,6-naphthyridin-3-amine]	15 to 20	> 50
CC(C)c1cnc(C(=O)NC2COC2)c2cnc(Nc3ccnc(N4CC[C@@H](O)[C@@](C)(F)C4)n3)cc12 [Example 60, 6-((2-((3S,4R)-3-fluoro-4-hydroxy-3-methylpiperidin-1-yl)pyrimidin-4-yl)amino)-4-isopropyl-N-(oxetan-3-yl)-2,7-naphthyridine-1-carboxamide]	15 to 20	30 to 50
CNC(=O)c1ncc(C(C)C)c2cc(Nc3ccnc(N4CC[C@@H](O)[C@@](C)(F)C4)n3)ncc12 [Example 64, 6-((2-((3S,4R)-3-fluoro-4-hydroxy-3-methylpiperidin-1-yl)pyrimidin-4-yl)amino)-4-isopropyl-N-methyl-2,7-naphthyridine-1-carboxamide]	15 to 20	> 50
CCNC(=O)c1ncc(C(C)C)c2cc(Nc3ccnc(N4CC[C@@H](O)[C@@](C)(F)C4)n3)ncc12 [Example 65, N-ethyl-6-((2-((3S,4R)-3-fluoro-4-hydroxy-3-methylpiperidin-1-yl)pyrimidin-4-yl)amino)-4-isopropyl-2,7-naphthyridine-1-carboxamide]	15 to 20	> 50
COCCNC(=O)c1ncc(C(C)C)c2cc(Nc3ccnc(N4CC[C@@H](O)[C@@](C)(F)C4)n3)ncc12 [Example 66, 6-((2-((3S,4R)-3-fluoro-4-hydroxy-3-methylpiperidin-1-yl)pyrimidin-4-yl)amino)-4-isopropyl-N-(2-methoxyethyl)-2,7-naphthyridine-1-carboxamide]	20 to 30	> 50
CC(C)c1cnc(C(=O)NC2CC2)c2cnc(Nc3ccnc(N4CC[C@@H](O)[C@@](C)(F)C4)n3)cc12 [Example 68, N-cyclopropyl-6-((2-((3S,4R)-3-fluoro-4-hydroxy-3-methylpiperidin-1-yl)pyrimidin-4-yl)amino)-4-isopropyl-2,7-naphthyridine-1-carboxamide]	15 to 20	> 50
CC(C)NC(=O)c1ncc(C(C)C)c2cc(Nc3ccnc(N4CC[C@@H](O)[C@@](C)(F)C4)n3)ncc12 [Example 69, 6-((2-((3S,4R)-3-fluoro-4-hydroxy-3-methylpiperidin-1-yl)pyrimidin-4-yl)amino)-N,4-diisopropyl-2,7-naphthyridine-1-carboxamide]	20 to 30	> 50
CC(C)c1cnc(C(=O)NCC(C)(C)O)c2cnc(Nc3ccnc(N4CC[C@@H](O)[C@@](C)(F)C4)n3)cc12 [Example 70, 6-((2-((3S,4R)-3-fluoro-4-hydroxy-3-methylpiperidin-1-yl)pyrimidin-4-yl)amino)-N-(2-hydroxy-2-methylpropyl)-4-isopropyl-2,7-naphthyridine-1-carboxamide]	30 to 100	> 50
CC(C)c1cnc(C(=O)N[C@H](C)CF)c2cnc(Nc3ccnc(N4CC[C@@H](O)[C@@](C)(F)C4)n3)cc12 [Example 71, 6-((2-((3S,4R)-3-fluoro-4-hydroxy-3-methylpiperidin-1-yl)pyrimidin-4-yl)amino)-N-((R)-1-fluoropropan-2-yl)-4-isopropyl-2,7-naphthyridine-1-carboxamide]	20 to 30	> 50
CC(C)c1cnc(C(=O)N[C@@H](C)CF)c2cnc(Nc3ccnc(N4CC[C@@H](O)[C@@](C)(F)C4)n3)cc12 [Example 72, 6-((2-((3S,4R)-3-fluoro-4-hydroxy-3-methylpiperidin-1-yl)pyrimidin-4-yl)amino)-N-((S)-1-fluoropropan-2-yl)-4-isopropyl-2,7-naphthyridine-1-carboxamide]	15 to 20	> 50
CC(C)c1cnc(C(=O)NC2CCOCC2)c2cnc(Nc3ccnc(N4CC[C@@H](O)[C@@](C)(F)C4)n3)cc12 [Example 78, 6-((2-((3S,4R)-3-fluoro-4-hydroxy-3-methylpiperidin-1-yl)pyrimidin-4-yl)amino)-4-isopropyl-N-(tetrahydro-2H-pyran-4-yl)-2,7-naphthyridine-1-carboxamide]	15 to 20	30 to 50
CC(C)c1cnc(C(=O)N[C@H]2C[C@H](O)C2)c2cnc(Nc3ccnc(N4CC[C@@H](O)[C@@](C)(F)C4)n3)cc12 [Example 79, 6-((2-((3S,4R)-3-fluoro-4-hydroxy-3-methylpiperidin-1-yl)pyrimidin-4-yl)amino)-N-((1r,3r)-3-hydroxycyclobutyl)-4-isopropyl-2,7-naphthyridine-1-carboxamide]	< 15	30 to 50
CC(C)c1cnc(C(=O)NC2CN(CCF)C2)c2cnc(Nc3ccnc(N4CC[C@@H](O)[C@@](C)(F)C4)n3)cc12 [Example 80, 6-((2-((3S,4R)-3-fluoro-4-hydroxy-3-methylpiperidin-1-yl)pyrimidin-4-yl)amino)-N-(1-(2-fluoroethyl)azetidin-3-yl)-4-isopropyl-2,7-naphthyridine-1-carboxamide]	< 15	20 to 30

Second part, the compound after the results:

IC50 (EGFR (L858R T790M C797S)) [nM]	IC50 [1] [nM]	Structure (SMILES)
< 15	30 to 50	CC(C)c1cnc(C(=O)NC2CN(C)C2)c2cnc(Nc3ccnc(N4CC[C@@H](O)[C@@](C)(F)C4)n3)cc12 [Example 59, 6-((2-((3S,4R)-3-fluoro-4-hydroxy-3-methylpiperidin-1-yl)pyrimidin-4-yl)amino)-4-isopropyl-N-(1-methylazetidin-3-yl)-2,7-naphthyridine-1-carboxamide]
< 15	> 50	CC(C)c1cnc(C(=O)NCCF)c2cnc(Nc3ccnc(N4CC[C@@H](O)[C@@](C)(F)C4)n3)cc12 [Example 62, 6-((2-((3S,4R)-3-fluoro-4-hydroxy-3-methylpiperidin-1-yl)pyrimidin-4-yl)amino)-N-(2-fluoroethyl)-4-isopropyl-2,7-naphthyridine-1-carboxamide]
< 15	> 50	CC(C)c1cnc(C(=O)NCC(F)F)c2cnc(Nc3ccnc(N4CC[C@@H](O)[C@@](C)(F)C4)n3)cc12 [Example 67, N-(2,2-difluoroethyl)-6-((2-((3S,4R)-3-fluoro-4-hydroxy-3-methylpiperidin-1-yl)pyrimidin-4-yl)amino)-4-isopropyl-2,7-naphthyridine-1-carboxamide]
< 15	20 to 30	CO[C@H]1C[C@@H](NC(=O)c2ncc(C(C)C)c3cc(Nc4ccnc(N5CC[C@@H](O)[C@@](C)(F)C5)n4)ncc23)C1 [Example 73, 6-((2-((3S,4R)-3-fluoro-4-hydroxy-3-methylpiperidin-1-yl)pyrimidin-4-yl)amino)-4-isopropyl-N-((1s,3s)-3-methoxycyclobutyl)-2,7-naphthyridine-1-carboxamide]
< 15	20 to 30	CO[C@H]1C[C@H](NC(=O)c2ncc(C(C)C)c3cc(Nc4ccnc(N5CC[C@@H](O)[C@@](C)(F)C5)n4)ncc23)C1 [Example 74, 6-((2-((3S,4R)-3-fluoro-4-hydroxy-3-methylpiperidin-1-yl)pyrimidin-4-yl)amino)-4-isopropyl-N-((1r,3r)-3-methoxycyclobutyl)-2,7-naphthyridine-1-carboxamide]
< 15	30 to 50	CC(C)c1cnc(C(=O)NC2CC(F)(F)C2)c2cnc(Nc3ccnc(N4CC[C@@H](O)[C@@](C)(F)C4)n3)cc12 [Example 75, N-(3,3-difluorocyclobutyl)-6-((2-((3S,4R)-3-fluoro-4-hydroxy-3-methylpiperidin-1-yl)pyrimidin-4-yl)amino)-4-isopropyl-2,7-naphthyridine-1-carboxamide]
< 15	30 to 50	CC(C)c1cnc(C(=O)NC2CS(=O)(=O)C2)c2cnc(Nc3ccnc(N4CC[C@@H](O)[C@@](C)(F)C4)n3)cc12 [Example 76, N-(1,1-dioxidothietan-3-yl)-6-((2-((3S,4R)-3-fluoro-4-hydroxy-3-methylpiperidin-1-yl)pyrimidin-4-yl)amino)-4-isopropyl-2,7-naphthyridine-1-carboxamide]
< 15	30 to 50	CC(C)c1cnc(C(=O)NCCN(C)C)c2cnc(Nc3ccnc(N4CC[C@@H](O)[C@@](C)(F)C4)n3)cc12 [Example 77, N-(2-(dimethylamino)ethyl)-6-((2-((3S,4R)-3-fluoro-4-hydroxy-3-methylpiperidin-1-yl)pyrimidin-4-yl)amino)-4-isopropyl-2,7-naphthyridine-1-carboxamide]
